Test results: patent US11318113B2, “Compounds for the treatment of diseases linked to mitochondrial reactive oxygen species (ROS) production” (OP2 DRUGS, priority 2015, dated 2022)
≈ marks a conversion by molar mass, not a printed value.

Tests used:
[1] = tested on: outer nuclear layer (ONL) of the retina; experiment: Progressive light-induced retinal degeneration, retina histology; format: in vivo, rat; conditions: 6 mg/kg/day, three times a day, 7 days
Description: Rats bred under cyclic low-intensity lighting were transferred to cyclic high-intensity lighting for one week and divided into 3 groups (non-treated animals, vehicle-treated animals and AOL-treated animals). Treated animals received injections of vehicle or AOL at a dose of 6 mg/kg/day, three times a day for the 7 days of the transfer (30 minutes before light-ON; at 01.00 pm; at 09.00 pm). After one week, animals were transferred in the dark (D0).
A control group (“untransferred”) was not transferred to cyclic high-intensity lighting but received the same treatment as described above: injections of vehicle or AOL three times a day for 7 days, followed by a transfer in the dark (D0).
Animals were then sacrificed for histological analysis.

[2] = tested on: other mitochondrial sites of ROS production (site IIIQO, site IF); experiment: Mitochondrial ROS/H2O2 production (Amplex Red/HRP) after rotenone, antimycin A, myxothiazol; format: biochemical, rat; conditions: AOL 5 to 80 μM
Description: Rates of ROS/H2O2 production from heart mitochondria were assessed through the oxidation of the colorless, non-fluorescent indicator Amplex Red in the presence of exogenous horseradish peroxidase (HRP, EC 1.11.1.7, Sigma). H2O2 reacts with Amplex Red in a 1:1 stoichiometry, yielding the fluorescent compound resorufin (excitation: 560 nm; emission: 585 nm) which is stable once formed. Fluorescence was measured continuously with a spectro-fluorometer equipped with temperature control and stirring (SAFAS Xenius, Monaco). Isolated mitochondria (0.1 mg/mL) were incubated in the same experimental buffer than previously, supplemented with 15 μM Amplex Red and 10 μg/mL HRP. Glutamate (5 mM)/malate (2.5 mM) together with succinate (5 mM) were used as complex I and complex II substrates, respectively. Experiments were conducted under non-phosphorylating conditions in the presence of 15 μM atractyloside, i.e. under state IV conditions where mitochondrial membrane […]. […]
FIG. 3 illustrates the effect of the presence of increasing concentrations of AOL (from 5 to 80 μM) on ROS/H2O2 production measured under the different conditions defined in FIG. 2. […]

[3] = Solubility limit in Kolliphor; format: physicochemical
[4] = tested on: isolated pancreatic islets from mice; experiment: Glucose-stimulated insulin secretion (GSIS) in isolated pancreatic islets; format: cell-based, mouse; conditions: AOL 10 and 20 μM, 1 hour
Description: Pancreatic islets were isolated using the collagenase digestion method. Briefly, pancreas was inflated with Hanks solution containing 0.33 mg/mL of collagenase (Sigma-Aldrich), 5.6 mM glucose and 1% bovine serum albumin, pH 7.35, removed and kept at 37° C. for 6-9 minutes. After tissue digestion and exocrine removal by three consecutive washes, the islets were manually collected, under a binocular magnifier. Islets were left recovering from digestion by culturing for 20-24 hours in RPMI-1640 medium containing 11 mM glucose (Invitrogen, Calif., USA) and supplemented with 2 mM glutamine, 200 IU/mL penicillin, 200 μg/mL streptomycin and 8% fetal bovine serum stripped with charcoal-dextran (Invitrogen).
For each static GSIS experiment, islets from two mice were first incubated for 2 hours at 37° C. in 3 mL Krebs-bicarbonate buffer solution (in mM): […], 2 HEPES and 3 glucose, equilibrated with a mixture of 95% O2:5% CO2, pH 7.4. […] Insulin secretion in each well was calculated as ng of insulin per islet and per hour of incubation, and then expressed as percentage of insulin secretion in 11 mM glucose vehicle group, which was considered 100%.

In the case of `COc1ccc(-c2cc(=S)ss2)cc1` [AOL, 5-(4-methoxyphenyl)-3H-1,2-dithiole-3-thione], the ONL thickness ([1]; transferred to cyclic high-intensity lighting) was “significant increase”, the ONL thickness ([1]; untransferred control group) was “no effect” and the “ROS/H2O2 production under the other conditions” value [2] was “no statistical differences were observed”. The solubility limit [3] was 2800 µM (≈ 673 µg/mL) and the “GSIS increase as compared to the 11 mM glucose vehicle group” value [4] was 65-75%.
